# Literature values in patent publication US20120141548A1, “NOVEL FORMULATION OF MELOXICAM” (FUNDACIONUNIVERSIDAD DEL NORTE, priority 2009, published 2012).
# Experiments:
# [1] = conventional meloxicam
smiles,measurement,setting,value
"Cc1cnc(NC(=O)C2=C(O)c3ccccc3S(=O)(=O)N2C)s1 [Meloxicam, meloxicam]",Tmax,[1],4 to 5 h
same,water solubility,,poorly water soluble
